For the experiment, the system named is M. tuberculosis H37Rv growth inhibition, 7H9 media. Kind of experiment: M. tuberculosis growth inhibition, HTS (AID 449762).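 On all read-outs here: bacterial growth assessed after seven days of incubation.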 The conditions noted are these: for IC90: measured here: IC90 growth inhibition.

Results filed as inconclusive are left out.

As for `Cc1cc(C(=O)N[C@H](c2ccccc2)[C@@]2(C)C[C@@H]2[C@@H](C)C(=O)Nc2ccc3ccccc3c2)n(C)n1`, the IC50 was 24.4 µM and the IC90 came to 27.6 µM. For `CCC(=O)NC(=S)Nc1ccc(NC(=O)COc2ccc(Cl)cc2Cl)cc1`, the half-inhibitory concentration (IC50) was 88.1 µM and the IC90 was over 100 µM.

Regarding `Cc1ccc(-c2ccc(C3C(C#N)=C(N)Oc4n[nH]c(C)c43)o2)cc1` (stereo unspecified), the IC50 is 24.5 µM and the IC90 came out at 52 µM. As for `COc1ccc(N(CC(=O)Nc2ccccc2C(N)=O)S(=O)(=O)c2ccc(C)c([N+](=O)[O-])c2)cc1`, the IC50 was 87.7 µM and the IC90 was over 100 µM. Consider `O=c1cc(O)c2sc3nc(-c4cccnc4)cc(C(F)(F)F)c3c2[nH]1`, for which the IC50 is 15.6 µM and the IC90 was 35.6 µM. For `COC(=O)C(C)Oc1ccc2c(c1)O/C(=C\c1ccco1)C2=O` (stereo unspecified), the IC50 was 5.58 µM and the IC90 was 16 µM. On to `COc1cc(NC(=O)c2ccc(COc3ccccc3Br)o2)cc(OC)c1OC`, for which the IC50 is 44.3 µM and the IC90 is over 100 µM. For `Nc1nc(Cl)cc(N2CCC(c3cc(-c4ccc(Cl)cc4Cl)n[nH]3)CC2)n1`, the IC50 is 22.9 µM and the IC90 amounted to 25.9 µM. With `Cc1cc(OC(=O)c2cccs2)c2c3c(c(=O)oc2c1)CCCC3`, the IC50 is 3.04 µM and the IC90 came out at 3.52 µM. Regarding `Cc1ccc(OC/C(O)=C(\C#N)c2nc3ccccc3s2)cc1`, the IC50 was 20.7 µM and the IC90 was 34 µM. In turn, `CCCCNC(=O)Nc1nnc(-c2ccc(OCC)cc2)o1` registered an IC90 of over 100 µM. `COCCNC(=S)N/N=C(\C)c1ccc(OC)cc1`: the IC50 is 40.8 µM and the IC90 is 49.4 µM. On to `CSc1nsc(SCC(=O)Nc2ccc(F)cc2F)n1`, for which the IC50 is 19.8 µM and the IC90 was found to be 63.4 µM.

Consider `CCN(CC)c1ccc2nc3ccccc3[n+](CC)c2c1`, for which the IC50 was 2.71 µM and the IC90 was determined as 5.66 µM. Consider `O=C(NNC(=O)C12CC3CC(CC(C3)C1)C2)c1ccccn1`, for which the IC50 was 5.36 µM and the IC90 was 23.5 µM. The like results for `O=c1[nH]c(=O)n(Cc2ccccc2)c2nc(-c3ccc(Oc4ccc(F)cc4)c([N+](=O)[O-])c3)n(CCO)c12` were, in that order, 24.4 µM and over 100 µM. Take `O=C(COc1cc(O)c2c(=O)c3ccccc3oc2c1)OCc1ccccc1`: the 90% effect concentration (IC90) was over 100 µM.

Regarding `COc1cc(OC)nc(-n2ncc(Br)c(Br)c2=O)n1`, the IC50 was 4.28 µM and the IC90 was 60.7 µM. The like results for `CCC(=O)N1c2ccc(S(=O)(=O)CCC(=O)N3CCn4c3nc3ccccc34)cc2CC1C` (stereo unspecified) were, in that order, 9.28 µM and 19.5 µM. `O=C(NCC1CCN(c2ccc(S(=O)(=O)N3CCOCC3)cc2)CC1)c1ccc(Cl)cc1`: the IC50 was 31.9 µM and the IC90 was determined as 51.8 µM. `Cc1cc(C)c(C)c(N=Nc2nc3ccccc3n2C)c1C`: the IC50 is 6.16 µM and the IC90 amounted to 6.93 µM. Regarding `CCOC(=O)CNC(=O)CNC(=O)c1nn(-c2ccc(OC)c(Cl)c2)c(=O)c2ccccc12`, the IC50 is 22.2 µM and the IC90 was over 100 µM. Regarding `O=C(CCC(=O)OCc1ccc(C(=O)Oc2ccc(Cl)cc2)cc1)Nc1ccccc1`, the IC50 was 16.4 µM and the IC90 was found to be 44 µM. Take `CN(CCCNC(=O)c1cc2c(Cl)nc3ccccc3c2s1)Cc1ccccc1`: the IC50 is 41.1 µM and the IC90 was 61 µM. Turning to `CCNc1nc(NC(C)(C)C)nc(N2CCCCC2)n1`, the IC50 is 99.6 µM and the IC90 was over 100 µM. `CCOc1cccc(C=Nc2cc(C)cc(C)c2O)c1O`: the IC50 was 13.6 µM and the IC90 amounted to 29.2 µM. For `O=C(COC(=O)C1=COCCO1)NCc1ccc(Cl)cc1`, the IC50 is 14.8 µM and the IC90 was over 100 µM. On to `CCOC(=O)c1cnc2ccc(OCC)cc2c1N1CCN(c2ccccc2)CC1`, for which the IC50 is 27.1 µM and the IC90 was over 100 µM. Turning to `Cc1ccc(C(=O)ONc2ccc(N=O)cc2)cc1`, the IC50 was 23.2 µM and the IC90 turned out to be 43.1 µM.

`CCn1c(SCC(=O)Nc2ccc3c(c2)oc2ccccc23)nnc1-c1ccc(N)cc1` returned an IC90 of over 100 µM.

For `Nc1cc([N+](=O)[O-])cc2oc(-c3ccccc3)cc12`, the IC50 is 98.3 µM and the IC90 was over 100 µM. Take `CCOC(=O)CCCc1ccc(/C(C)=N/NC(N)=S)cc1`: the IC50 was 6.5 µM and the IC90 was determined as 14.7 µM. Turning to `Cc1ccc(C2=NN(C)c3nc4ccccc4n3C2)cc1`, the IC50 is 20.4 µM and the IC90 came out at 78.3 µM. Regarding `OCCCNc1cc(-c2ccnc(Nc3cccc(Cl)c3)n2)ccn1`, the IC50 was 20.8 µM and the IC90 is 45 µM.

Take `Cc1cc(Br)ccc1NC(=O)c1cnc(N2CCN(c3ccccn3)CC2)c2ccccc12`: the IC50 was 1.24 µM and the IC90 was 3.49 µM. As for `CC(C)NC(=O)c1sc(=S)n2c1[nH]c(=O)c1ccc(C(=O)NCCc3ccc(Cl)cc3)cc12`, the IC50 was 0.3 µM and the IC90 amounted to 0.49 µM. The like results for `CC(C)(C)Nc1nc(NC(C)(C)C)nc(-n2ccnc2)n1` were, in that order, 14.6 µM and over 100 µM. The like results for `FC(F)(Cl)c1nnc2ccc(Cl)nn12` were, in that order, 0.26 µM and 0.86 µM. As to `CC(C)(C)c1cc(-c2nc(N)nc(N)n2)c(O)c(C(C)(C)C)c1`, the IC50 is 75.9 µM and the IC90 came to 88.9 µM. Consider `CSC(=S)N/N=C/c1ccccc1`, for which the IC50 was 10.1 µM and the IC90 came out at 12.8 µM. Take `Clc1ccc(CNc2nc(CN3CCOCC3)nc3scc(-c4ccccc4)c23)cc1`: the IC50 was 17.3 µM and the IC90 was found to be 43.6 µM.

Regarding `CC(=O)c1ccc(NC(=O)c2cc(CC(C)C)on2)cc1`, the IC50 is 11.1 µM and the 90% effect concentration (IC90) was 14.4 µM. On to `Cc1cc(C)cc(-n2c(C)c3c(C)nnc(C)c3c2C)c1`, for which the IC50 is 62.8 µM and the IC90 was found to be 78.1 µM. The like results for `OCC(O)/C=N/Nc1nc(Nc2ccccc2)nc(Nc2ccccc2)n1` (stereo unspecified) were, in that order, 9.56 µM and 12.5 µM. Turning to `CCCCNC(=S)Nc1ccc2cn[nH]c2c1`, the IC50 was 11.2 µM and the IC90 is 21.3 µM. With `C/C(=N\NC(=O)c1cc2ccccc2cc1O)c1ccc(C)o1`, the IC50 is 10.1 µM and the IC90 was determined as 36.3 µM.

In the case of `CN1C(C(=O)NCc2ccc(OC(F)(F)F)cc2)CC2Cn3c(nc4cc(Cl)c(Cl)cc43)C21` (stereo unspecified), the IC50 is 39.8 µM and the concentration for an effect of 90% (IC90) is 55.6 µM.

On to `CCCCCc1ccc(S(=O)(=O)NCCc2ccncc2)cc1`, for which the 50% inhibitory concentration (IC50) is 34.1 µM and the IC90 is 42.8 µM. The like results for `CCOC(=O)CN(C#N)c1nc(N(C)C)nc(N(C)C)n1` were, in that order, 11.1 µM and 12.5 µM. In the case of `Cc1nc(N2CCN(c3ccccn3)CC2)c2c(C)c(C(=O)N3CCN(c4ccc(F)cc4)CC3)sc2n1`, the IC50 was 11.1 µM and the IC90 stood at 12.5 µM. As for `C(=N\NC1=Nc2cccc3cccc1c23)/c1cccnc1`, the IC50 was 13.4 µM and the IC90 is over 100 µM. Regarding `Cc1cc(O)c2c(c1)C(=O)c1cc(O)cc(O)c1C2=O`, the IC50 is 91.5 µM and the IC90 is over 100 µM.

Turning to `Cc1c(C(=O)Nc2nc3ccccc3[nH]2)oc2c(Cl)cccc12`, the IC50 is 68 µM and the IC90 is over 100 µM.

As to `Cc1ccc(-n2cc(CNCCn3nc(C)cc3C)c(-c3ccc(F)cc3)n2)cc1`, the IC50 was 3.48 µM and the IC90 turned out to be 9.36 µM. As to `Cc1cc(Nc2ccccc2)c2c([N+](=O)[O-])ccc(C)c2n1`, the IC50 was 94.4 µM and the IC90 was over 100 µM. Turning to `C#CCOC(=O)/C(=C/C=C/c1ccccc1)NC(=O)c1ccccc1`, the IC50 was 3.82 µM and the IC90 came to 43.3 µM. Take `Cc1[nH]c2ccccc2c1/C=N/Nc1nc(Nc2ccccc2)nc(N2CCOCC2)n1`: the IC50 was 2.88 µM and the IC90 is 10 µM.

On to `CCOC(=O)C1CCCc2c1[nH]c1c(C(N)=O)cccc21` (stereo unspecified), for which the IC50 was 4.13 µM and the IC90 came to 13.2 µM. The like results for `CCOc1ccc2nc(N/C(N)=N/C(=S)Nc3cccc(C)c3)nc(C)c2c1` were, in that order, 5.4 µM and over 100 µM.

On to `COc1cc(C)c(/C=C/C(C)=C/C=C/C(C)=C/C(=O)O)c(C)c1C`, for which the IC50 was 1.56 µM and the IC90 is 6.76 µM. For `C=CCN(C(=O)CSc1nc2c(sc3ccccc32)c(=O)n1CCN(CC)CC)c1ccccc1`, the IC50 is 29 µM and the IC90 stood at 36 µM.

`Cc1ccc(C)c(N2CCN(C(=S)Nc3ccc4nc(N5CCN(C)CC5)cc(C)c4c3)CC2)c1`: the IC50 is 38.7 µM and the IC90 was 50.9 µM. On to `CCOC(=O)CSc1nnc(NC(=O)c2ccc3c(c2)OCO3)s1`, for which the IC50 is 5.67 µM and the IC90 is 42.3 µM. Consider `COc1ccc(C2Oc3ccccc3C3=C2C(c2cccs2)n2ncnc2N3)cc1` (stereo unspecified), for which the IC50 is 51.2 µM and the IC90 is over 100 µM. The like results for `O=C(CSc1nc(Nc2ccccc2)nc(N2CCOCC2)n1)Nc1cc(Cl)ccc1O` were, in that order, 44 µM and over 50 µM.

In the case of `Cc1[nH]n(S(=O)(=O)Cc2ccccc2)c(=O)c1N=Nc1ccccc1Cl`, the IC50 was 5.57 µM and the IC90 came out at 8.53 µM. As for `Cc1ccc(-n2cccc2C(=S)N=P(N(C)C)(N(C)C)N(C)C)cc1`, the IC50 is 18.4 µM and the IC90 stood at 25.5 µM. As to `COc1cc(/C=C2\C(=O)N(c3ccc(S(N)(=O)=O)cc3)N=C2C)ccc1OC(=O)c1ccco1`, the IC50 was 16.2 µM and the IC90 is 22.6 µM. As to `CCc1ccc(NCc2ccc(OC)c(Cn3ccnc3)c2)cc1`, the IC50 was 21.5 µM and the IC90 is 23.9 µM. Consider `CCN(CC)C(=O)Oc1ccc2c(=O)c(-c3ccc(OC)cc3)coc2c1`, for which the IC50 is 28.5 µM and the IC90 was over 100 µM. `O=C1NCC(O)=C1C=Nc1ccccc1O`: the IC50 was 5.93 µM and the IC90 was 6.49 µM. The like results for `C=C(C)C(=O)OCC(O)COc1ccc(C(C)(C)c2ccc(OCC(O)COC(=O)C(=C)C)cc2)cc1` (stereo unspecified) were, in that order, 37.8 µM and 48.5 µM.

As a reminder, the IC50 is the concentration that gives 50% inhibition. As usually defined, the IC90 is the concentration at which the effect reaches the 90% level. A low value points to greater potency.

Source of the values: PubChem BioAssay AID449762 (Southern Research Specialized Biocontainment Screening …, 2010).
